Assay results published in US10106627B2, “Process for the preparation of polymeric biosurfactants” (priority 2014, dated 2018).

Columns and labels:
[1] = test system: Bacillus subtilis MTCC 121; test: Microtiter broth dilution MIC; type: cell-based; conditions: Bacillus subtilis MTCC 121, 24 h, 35° C.
Protocol: (§1) The antimicrobial activity of Microsan and M-EPS-Au-NP was determined using the microtiter broth dilution method [Kumar, C. G. and Mamidyala, S. K. (2011) Coll. Surf B: Biointerf. 84, 462-466]. Different bacterial pathogens (10^7 cfu ml^−1 cells) were inoculated in 100 μl of Muller-Hinton broth. Different concentrations of Microsan, M-EPS-Au-NP and Brevisan were added to each strain and incubated for 24 h at 35° C. After incubation, 40 μl of p-iodonitrotetrazolium (INT, Sigma) dye (0.02%, 20 mg INT dissolved in 100 ml of 40% dimethyl formamide was added to each well and incubated for 2 h. The reduction of p-iodonitrotetrazolium was spectroscopically measured at 450 nm using TRIAD multimode reader (Dynex Technologies, Inc., Chantilly, Va.) to determine the minimum inhibitory concentration (MIC) values. Commercially available surfactin (CAS 24730-31-2; Sigma-Aldrich) and laminarin (CAS No 9008-22-4; Sigma-Aldrich) used as positive controls were run in parallel for comparison. The MIC values of Microsan and M-EPS-Au-NP observed against the tested bacterial strains are shown in Table 3.

[2] = test system: Micrococcus luteus MTCC 2470; test: Microtiter broth dilution MIC; type: cell-based; conditions: Micrococcus luteus MTCC 2470, 24 h, 35° C.
Protocol: as §1

[3] = test system: Staphylococcus aureus MLS16 MTCC 2940; test: Microtiter broth dilution MIC; type: cell-based; conditions: Staphylococcus aureus MLS16 MTCC 2940, 24 h, 35° C.
Protocol: as §1

[4] = test system: Escherichia coli MTCC 739; test: Microtiter broth dilution MIC; type: cell-based; conditions: Escherichia coli MTCC 739, 24 h, 35° C.
Protocol: as §1

[5] = test system: Pseudomonas aeruginosa MTCC 2453; test: Microtiter broth dilution MIC; type: cell-based; conditions: Pseudomonas aeruginosa MTCC 2453, 24 h, 35° C.
Protocol: as §1

[6] = test system: Klebsiella planticola MTCC 530; test: Microtiter broth dilution MIC; type: cell-based; conditions: Klebsiella planticola MTCC 530, 24 h, 35° C.
Protocol: as §1

[7] = test system: Staphylococcus aureus MTCC 96; test: Microtiter broth dilution MIC; type: cell-based; conditions: Staphylococcus aureus MTCC 96, 24 h, 35° C.
Protocol: as §1

[8] = test system: cyclooxygenase-2 (COX-2) in RAW 264.7 cells; test: LPS-induced COX-2 immunoblot in RAW 264.7 cells; type: cell-based, mouse; conditions: 10 and 50 μg ml^−1, 24 h, LPS 100 ng ml^−1
Protocol: In independent experiments, RAW-264.7 cells were treated with Brevisan, Microsan and M-EPS-Au-NP (10 and 50 μg ml^−1 each) and then stimulated with 100 ng ml^−1 of LPS. After 24 h, the cells were washed with PBS and suspended in a lysis buffer containing 20 mM Tris, I mM EDTA, 150 mM NaCl, 1% NP-40, 0.5% sodium deoxycholate, 1 mM β-glycerophosphate, 1 mM sodium orthovanadate, 1 mM PMSF, 10 mg ml^−1 leupeptin, 20 mg ml^−1 aprotinin. The mixture was centrifuged at 10,000 rpm at 4° C. for 10 min to obtain the cell lysate. The protein content was determined by Bradford method [Bradford, M. M. (1976) Anal. Biochem. 72, 248-258]. An equal amount of total cell lysate was resolved on 12% SDS-PAGE gels and then transferred onto nitrocellulose membranes. Membranes were blocked with 5% w/v non-fat dry milk and then incubated with the primary antibodies for mouse COX-2 and β-actin with gentle shaking at 4° C. for 12 h and then incubated with peroxidase-conjugated secondary antibodies. The blots were developed using peroxidase substrates, TMB (3,3,5,5-tetramethylbenzidine)/H2O2.

[9] = Thermal degradation analysis (TGA/DSC); type: physicochemical
Protocol: The Microsan and Brevisan polymeric biosurfactants recovered and purified in Example 3 were subjected to structural characterization. The average molecular weight (Mw) of EPS was determined by gel permeation chromatography [Agilent 1100 Series HPLC system, TOSOH Corporation, Japan, equipped with a RID and a TSK G5000PWXL gel column (7.8×300 mm) and a TSK PWXL (6.0 mm×40 mm) guard column] using dextran standards ranging from 10680 to 578500 Da (Sigma, CAS No. 9004-54-0). The Fourier transform infrared spectra (FT-IR) were recorded on the Thermo-Nicolet Nexus 670 FT-IR spectrophotometer (Thermo Fisher Scientific Inc., Madison, Wis., U.S.A.) using KBr pellets containing 1% finely ground EPS samples and the spectra was collected at a resolution of 4 cm^−1 in the wavenumber region of 400-4,000 […]. The cross-polarization/magic angle spinning (CP/MAS) ^13C NMR experiments were performed on a Varian Unity Innova spectrometer operating at 400 MHz for ^1H and 100 MHz for ^13C at room temperature. […] Thermal degradation analyses of the EPS samples were measured using a DSC 821^c (Mettler Toledo GmbH, Switzerland) interfaced with Mettler Toledo Star SW (version 8.10) software. […] All of the XPS analyses were carried out in duplicates (two independent samples of each type of EPS analyzed at different time intervals). […]

β-D-glucuronyl-(1-2)-D-mannosyl-(1-4)-D-glucose [Microsan]
Minimum inhibitory concentration (MIC) [1]: 4.68 µg/mL
Minimum inhibitory concentration (MIC) [2]: >300 µg/mL
Minimum inhibitory concentration (MIC) [3]: 4.68 µg/mL
Minimum inhibitory concentration (MIC) [4]: >300 µg/mL
Minimum inhibitory concentration (MIC) [5]: >300 µg/mL
Minimum inhibitory concentration (MIC) [6]: 9.37 µg/mL
Minimum inhibitory concentration (MIC) [7]: 18.75 µg/mL
induction of COX-2 (Western blot) [8]: significantly inhibited
thermal degradation temperature (TGA) [9]: 280 °C
